The text below walks through data of patent publication US6083941A, “Inhibition of NMDA receptor activity by pregnenolone sulfate derivatives” (Trustees of Boston University, priority 1998, dated 2000).

For series [1], the target named is T1, recombinant NMDA receptors (NR1100 and NR2A subunits) (Rattus norvegicus, UniProt P35439+Q00959).
T1 construct: expressed in transfected cells; host or cells: Xenopus laevis oocytes injected with in vitro transcribed mRNA
In words: Two electrode voltage-clamp of Xenopus oocytes expressing recombinant NMDA receptors. Format: cell-based. As for the experimental part: RNA preparation. mRNA were prepared through in vitro transcription of NR1100 and NR2A cDNAs using the mMessage mMachine kit (Ambion, Tex.). NR1100 and NR2A clones were kindly provided by Dr. Zukin and Dr. Nakanishie.
Xenopus expression system. Female, oocyte positive Xenopus laevis frogs were purchased from Nasco, Inc. (WI). The frogs were kept on a 12/12 light-dark cycle and maintained on a diet of chopped calf liver every 3 days. Prior to surgery, frogs were anesthetized in a 0.15% Tricaine solution (Sigma, Mo.) for 30-45 minutes. Ovarian sections containing the follicular oocytes were removed through a lateral abdominal incision and were immediately placed in calcium-free ND96 solution (in mM):96 NaCl; 1 MgCl2; 2 KCl; 5 Hepes; 2.5 pyruvate (pH adjusted to 7.4 with NaOH). Following a 2 hr. incubation in 0.2% collagenase type II (Sigma, Mo.) at room temperature, individual defolliculated oocytes were transferred into 60×15 mm glass petri dishes containing ND96 solution (in mM): 96 NaCl; 1 MgCl2; 2 KCl; 1.8 CaCl2; 5 Hepes; 2.5 pyruvate (pH adjusted to 7.4 with NaOH). The isolated oocytes were maintained in an incubator at 18° C. On the following date, batches of 20-40 selected oocytes (Dumont stage V and VI) were injected with 50 nl of prepared RNA solution (0.5 ng of NR1 and 12 ng of NR2A mRNAs per oocyte) using an electronic microinjector (Drummond, Pa.). The injected oocytes were used for electrophysiological experiments following 4-10 day incubation at 18° C.
Electrical recording and drug application. The ion current recordings were obtained in two electrodes voltage-clamp mode using an Axoclamp-2A amplifier (Axon Instruments, Inc., CA). The microelectrodes were fabricated with a programmed puller (Sutter Instrument Co., CA) from glass capillaries (Dagan, Minn.) and filled with 3M KCl solution. The resistance of filled microelectrodes was in the range of 2.5-3.5 M.OMEGA.. The oocytes were clamped at a holding potential of -70 mV. The membrane current was filtered at 500 Hz and sampled at 100 Hz frequency. The drugs were applied using a gravity driven external perfusion system. The data acquisition and external perfusion control were done using SuperScopeII software package (GW Instruments, MA). All experiments were performed at room temperature of 22-24° C.
The degree of modulation of the amino acid response by steroids, the percent change, was defined at (I'/I-1)×100%, where I and I' are respectively the agonist-induced currents in the absence and presence of steroid. Throughout, results are expressed as mean±SEM; statistical comparison of groups was carried out using Student's t test.
For orientation: Two-electrode voltage clamp holds a large cell at a set potential and records current.

For series [2], the system named is focal cerebral ischemia (MCA occlusion) in rats. As to the kind of experiment: Middle cerebral artery occlusion cerebral ischemia test. Format: in vivo. The conditions noted are these: for cortical infarct volume: treatment delayed until 30 min. after initiation of ischemia. On the procedure:
Male Wistar rats (200-250 g) were used. Anesthesia was induced with 3% halothane in 70% nitrogen balanced with oxygen. Rats were intubated and artificially ventilated with 2% halothane in a mixture of 30% oxygen and 70% nitrogen. Body temperature was maintained at 37.5° C. during surgery by means of a warming pad with a rectal probe connected to a feedback control unit. Both common carotid arteries (CCA) were isolated, and a loose silk ligature was placed around each artery. A vertical skin incision was made between the left orbit and the auditory canal. Under constant saline irrigation the posterior part of the zygoma was removed and a small opening (2.0/2.5 mm) drilled dorso-rostrally to the foramen ovale. The dura was opened with a microsurgical hook and the brain gently retracted with a small spatula to expose the bifurcation of the internal carotid artery and middle cerebral artery. After permanent ligation of the ipsilateral CCA, the middle cerebral artery (MCA) was coagulated from its origin to the olfactory tract. The contralateral CCA was occluded for a period of 2 hours. A bolus intravenous injection (1 ml) of test compound dissolved in 5% DMSO, 10% 2-hydroxy propyl-β-cyclodextrin in 100 mM sodium phosphate buffer, pH 7.4, was given either immediately after MCA occlusion or 30 minutes after MCA occlusion. An intravenous infusion of the test drug in the same vehicle was initiated immediately after the bolus injection. Twenty-two hours after MCA occlusion rats were euthanized, and the brains were sectioned into 2 mm slices and stained with tetrazoliumred (2,3,5-triphenyl tetrazolium chloride). Areas of brain damage were assessed using an image analyzer with the NIH Image program, and the volumes of cortical and subcortical infarction were estimated by integration of areas in serial.
Pregnanolone hemisuccinate produced significant neuroprotection in the MCAO cerebral ischemia model. […] Focal cerebral ischemia was induced in the left hemisphere of male rats by proximal coagulation of the middle cerebral artery. In addition, the ipsilateral common carotid artery was permanently occluded and the contralateral common carotid artery was occluded for 2 h. Five minutes after initiation of ischemia, rats were injected with an i.v. loading dose of 6.9 mg/kg 5β3αHS, followed by i.v. infusion of 5β3αHS at 6.9 mg/kg/h. […] Control rats were treated with vehicle. Infusion of 5β3αHS was continued for an additional 20 h, at which time the rats were sacrificed, and their brains were sliced and stained with the vital stain 2,3,5 triphenyl tetrazolium Cl.

The mark [3] stands for this setting: i.v. 6.9 mg/kg loading dose then 6.9 mg/kg/h, started 5 min. after onset of ischemia, versus vehicle.

The structures appear in SMILES notation. Where a name gives a salt, the structure may show the parent alone.

T1 sequence (Q00959 23-1464, other chains not shown): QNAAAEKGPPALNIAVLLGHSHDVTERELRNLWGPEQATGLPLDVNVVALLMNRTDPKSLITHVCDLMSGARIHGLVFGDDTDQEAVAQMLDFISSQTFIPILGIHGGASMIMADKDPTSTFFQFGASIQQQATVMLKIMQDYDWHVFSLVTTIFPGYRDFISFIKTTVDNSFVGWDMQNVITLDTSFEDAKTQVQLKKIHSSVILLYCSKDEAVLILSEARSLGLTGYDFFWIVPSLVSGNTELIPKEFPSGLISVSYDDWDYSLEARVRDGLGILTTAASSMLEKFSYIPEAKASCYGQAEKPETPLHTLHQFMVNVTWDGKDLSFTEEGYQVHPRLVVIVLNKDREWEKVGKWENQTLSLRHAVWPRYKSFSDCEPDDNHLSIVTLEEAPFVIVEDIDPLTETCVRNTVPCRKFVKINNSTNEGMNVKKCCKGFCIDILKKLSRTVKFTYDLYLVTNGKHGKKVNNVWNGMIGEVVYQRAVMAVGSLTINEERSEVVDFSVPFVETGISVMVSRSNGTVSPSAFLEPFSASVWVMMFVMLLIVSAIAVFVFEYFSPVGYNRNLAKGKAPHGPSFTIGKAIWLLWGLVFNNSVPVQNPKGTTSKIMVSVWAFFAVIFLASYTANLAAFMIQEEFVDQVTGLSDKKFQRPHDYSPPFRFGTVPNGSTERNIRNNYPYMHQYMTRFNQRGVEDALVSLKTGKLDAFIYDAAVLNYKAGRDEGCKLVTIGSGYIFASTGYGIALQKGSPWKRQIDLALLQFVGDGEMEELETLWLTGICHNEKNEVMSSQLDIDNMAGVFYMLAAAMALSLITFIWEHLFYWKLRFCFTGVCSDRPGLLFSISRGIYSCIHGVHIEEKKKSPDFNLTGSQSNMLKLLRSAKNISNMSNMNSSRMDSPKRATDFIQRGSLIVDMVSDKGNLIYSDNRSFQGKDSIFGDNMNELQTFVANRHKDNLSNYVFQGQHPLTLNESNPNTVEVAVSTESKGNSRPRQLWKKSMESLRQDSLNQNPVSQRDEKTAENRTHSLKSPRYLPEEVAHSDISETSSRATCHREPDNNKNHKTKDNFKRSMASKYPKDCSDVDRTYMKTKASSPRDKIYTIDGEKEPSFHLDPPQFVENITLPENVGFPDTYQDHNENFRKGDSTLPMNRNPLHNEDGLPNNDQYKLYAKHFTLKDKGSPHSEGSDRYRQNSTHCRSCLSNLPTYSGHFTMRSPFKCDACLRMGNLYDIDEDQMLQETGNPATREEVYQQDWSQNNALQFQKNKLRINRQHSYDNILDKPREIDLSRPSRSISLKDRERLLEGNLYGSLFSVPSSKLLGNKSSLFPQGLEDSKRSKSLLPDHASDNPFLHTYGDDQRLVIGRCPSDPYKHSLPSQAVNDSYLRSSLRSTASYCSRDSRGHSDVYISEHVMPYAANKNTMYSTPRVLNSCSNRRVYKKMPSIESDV

Turning to `CC(=O)C1CCC2C3CC=C4CC(OS(=O)(=O)O)CCC4(C)C3CCC12C` (centres unmarked) [PS, pregnenolone sulfate], the activation at 100 µM in series [1] (100 μM steroid, read-out: potentiation of a near maximal NMDA response (200 μM)) is 292 ± 34%.

For the molecule `CC(=O)[C@H]1CC[C@H]2[C@@H]3CC[C@@H]4C[C@H](OS(=O)(=O)O)CC[C@]4(C)[C@H]3CC[C@]12C` [5β3αS, 3α-hydroxy-5β-pregnan-20-one sulfate], in series [1], the “effect on NMDA responses of NR1100/NR2A injected oocytes” value is “had an inhibitory effect”.

As for `CC(=O)[C@H]1CC[C@H]2[C@@H]3CC[C@@H]4C[C@H](OC(=O)CCC(=O)O)CC[C@]4(C)[C@H]3CC[C@]12C` [5β3αHS, 3α-hydroxy-5β-pregnan-20-one hemisuccinate], the “sedation” value in series [2] (i.v. 6.9 mg/kg loading dose then 6.9 mg/kg/h) is reported as “Little or no sedation”. Besides, in series [2] (setting [3]), the “reduction in cortical infarct volume” value is 47±10%. Further, the “reduction in subcortical infarct volume” value in series [2] (setting [3]) came out at 26±6%. Besides, the “cortical infarct volume” value in series [2] is on record as “significantly reduced”; in series [2] (listed as Pregnanolone hemisuccinate), “significantly decreased”. In series [2] (treatment immediately after cerebral ischemia), the “infarction volumes of the cortical and subcortical brain regions” value is recorded as “significantly decreased”.
